Measured values published in the NIST ThermoML archive (doi:10.1016/j.jct.2016.11.029).
± gives the expanded uncertainty stated by the source.

What was measured:
[1] = Crystal; DTA
[2] = Molar enthalpy of transition or fusion; settings: Crystal; DSC

Normal melting temperature [1]: 199.80 ± 1.1 °C | Molar enthalpy of transition or fusion [2]: 5.16 ± 0.22 kcal/mol
Compound: Clc1ccc2c(c1)Nc1ccccc1S2 [2-chlorophenothiazine]
